Read-outs that look alike come from different tables or passages of the source.
Assays:
[1] = Ligand charge of maytansinoid conjugates; format: physicochemical
human SSTR2 = human SSTR2 (Homo sapiens, UniProt P30874); test: Radioligand-receptor binding assay, [125I] somatostatin, membranes from SSTR2 expressing CHO-K1 cells
Description: These conjugates were also assessed in an in vitro assay evaluating binding to the somatostatin receptor 2 (SSTR2). A radioligand-receptor binding assay was conducted at Eurofins Panlabs (Taiwan) to determine the affinity of conjugates described herein to the SSTR2. The assay measures binding of radiolabeled ligand, [^125I] labeled somatostatin, to human SSTR2 using membrane preparations from SSTR2 expressing CHO-K1 cells. Membranes were incubated with radiolabeled somatostatin (0.03 nM) in the presence of conjugate/compound starting at a dose of 10 uM using 6× serial dilutions to obtain a 10-pt curve. After a four hour incubation, membranes were filtered and washed 3× and counted to determine the remaining [^125I] somatostatin bound to the receptor. IC50 values were determined by a non-linear, least squares regression analysis using MathIQ™ (ID Business Solutions Ltd., UK).

[2] = system: NCI-H524 (ATCC) human lung cancer cells; format: cell-based
Description: FIG. 1 is a graph of various conjugates represented as bars and showing on the Y-axis their activity in an H524 proliferation assay with and without competition by octreotide. […] This illustrates the suprprising finding that only maytansinoid conjugates show activity that is dependent on the receptor.
Conjugates were assessed in an in vitro assay evaluating inhibition of cell proliferation. NCI-H524 (ATCC) human lung cancer cells were plated in 96 well, V-bottomed plates (Costar) at a concentration of 5,000 cells/well and 24 hours later were treated with compound for 6 hours and further incubated 66 hours. Compound starting dose was 20 μM and three fold serial dilutions were done for a total of ten points. After 6 hours of treatment, cells were spun down, the drug containing media was removed, and fresh complete medium was added and used to resuspend the cells, which were spun again. After removal of the wash media, the cells were resuspended in complete medium, then transferred into white walled, flat bottomed 96 well plates. […] Proliferation was measured using CellTiter Glo reagent using the standard protocol (Promega) and a Glomax multi+detection system (Promega). Percent proliferation inhibition was calculated using the following formula: % inhibition=(control-treatment)/control*100. Control is defined as vehicle alone. IC50 curves were generated using the nonlinear regression analysis (four parameter) with GraphPad Prism 6.
Conjugates were tested for their activity dependence on the somatostatin receptor. Active agent Z in the conjugate was selected from auristatin, carbazitaxel, DM1, doxorubicin, platinum, SN-38 and vinblastine. Active agent Z is connected to octreotide with various linkers. Proliferation IC50 values of the conjugates were measured. Proliferation IC50 values of the conjugates without octreotide competition were also measured. The ratio of IC50 with octreotide competition and IC50 without octreotide competition is an indicator of whether activity is at least particially dependent on bind to the somatostatin receptor. […] Therefore, the activity of conjugates comprising DM1 is dependent on the binding to the somatostatin receptor.

[3] = read-out: H524 IC50 6 h, 6 hours treatment, further 66 hours incubation
[4] = read-out: H524 IC50 with 100 μM octreotide 6 h, with 100 μM octreotide competition, 6 h treatment

Sequence of human SSTR2 (P30874 whole entry): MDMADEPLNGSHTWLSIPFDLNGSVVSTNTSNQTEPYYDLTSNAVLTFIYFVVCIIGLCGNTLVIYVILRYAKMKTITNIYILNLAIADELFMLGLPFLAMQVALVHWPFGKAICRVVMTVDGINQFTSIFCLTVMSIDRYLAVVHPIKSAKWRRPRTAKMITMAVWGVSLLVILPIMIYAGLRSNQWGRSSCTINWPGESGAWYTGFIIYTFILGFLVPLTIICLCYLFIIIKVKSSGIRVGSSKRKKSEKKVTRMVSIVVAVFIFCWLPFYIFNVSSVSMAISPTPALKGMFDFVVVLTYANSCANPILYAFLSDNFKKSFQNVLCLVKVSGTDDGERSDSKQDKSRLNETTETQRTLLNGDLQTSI

For `COc1cc2cc(c1Cl)N(C)C(=O)C[C@H](OC(=O)[C@H](C)N(C)C(=O)CCC(C)(C)SSC[C@H](NC(=O)[C@@H]1CSSC[C@H](NC(=O)[C@@H](Cc3ccccc3)NC(=O)Nc3ccccc3)C(=O)N[C@@H](Cc3ccc(O)cc3)C(=O)N[C@H](Cc3c[nH]c4ccccc34)C(=O)N[C@@H](CCCCN)C(=O)N[C@@H]([C@@H](C)O)C(=O)N1)C(N)=O)[C@]1(C)O[C@H]1[C@H](C)[C@@H]1C[C@@](O)(NC(=O)O1)[C@H](OC)/C=C/C=C(\C)C2` [Conjugate 5], the Ligand charge [1] was “+1”, the Ki (human SSTR2) was 0.32 nM and the IC50 [2, 3] was 7.7 nM. It also gave an IC50 [2, 4] of 317 nM.
With `COc1cc2cc(c1Cl)N(C)C(=O)C[C@H](OC(=O)[C@H](C)N(C)C(=O)CCSSC(C)(C)[C@@H](NC(=O)[C@@H]1CSSC[C@H](NC(=O)[C@H](N)Cc3ccccc3)C(=O)N[C@@H](Cc3ccc(O)cc3)C(=O)N[C@H](Cc3c[nH]c4ccccc34)C(=O)N[C@@H](CCCCN)C(=O)N[C@@H]([C@@H](C)O)C(=O)N1)C(N)=O)[C@]1(C)O[C@H]1[C@H](C)[C@@H]1C[C@@](O)(NC(=O)O1)[C@H](OC)/C=C/C=C(\C)C2` [Conjugate 8] the Ligand charge [1] was “+2”, the Ki (human SSTR2) was 0.79 nM and the IC50 [2, 3] was 270 nM. The IC50 [2, 4] was 467 nM.
With `COc1cc2cc(c1Cl)N(C)C(=O)C[C@H](OC(=O)[C@H](C)N(C)C(=O)CCSSC(C)(C)[C@@H](NC(=O)[C@@H]1CSSC[C@H](NC(=O)[C@@H](Cc3ccccc3)NC(=O)NCc3ccccc3)C(=O)N[C@@H](Cc3ccc(O)cc3)C(=O)N[C@H](Cc3c[nH]c4ccccc34)C(=O)N[C@@H](CCCCN)C(=O)N[C@@H]([C@@H](C)O)C(=O)N1)C(N)=O)[C@]1(C)O[C@H]1[C@H](C)[C@@H]1C[C@@](O)(NC(=O)O1)[C@H](OC)/C=C/C=C(\C)C2` [Conjugate 9] the Ligand charge [1] was “+1”, the Ki (human SSTR2) was 3.15 nM and the IC50 [2, 3] was 208 nM. It also gave an IC50 [2, 4] of 815 nM.
In the case of `COc1cc2cc(c1Cl)N(C)C(=O)C[C@H](OC(=O)[C@H](C)N(C)C(=O)CCSSC(C)(C)[C@H](NC(=O)[C@@H]1CSSC[C@H](NC(=O)[C@@H](Cc3ccccc3)NC(=O)NCc3ccc(C(F)(F)F)cc3)C(=O)N[C@@H](Cc3ccc(O)cc3)C(=O)N[C@H](Cc3c[nH]c4ccccc34)C(=O)N[C@@H](CCCCN)C(=O)N[C@@H]([C@@H](C)O)C(=O)N1)C(N)=O)[C@]1(C)O[C@H]1[C@H](C)[C@@H]1C[C@@](O)(NC(=O)O1)[C@H](OC)/C=C/C=C(\C)C2` [Conjugate 15], the Ligand charge [1] is reported as “+1”, the Ki (human SSTR2) is reported as 0.077 nM and the IC50 [2, 3] is reported as 17 nM. It also gave an IC50 [2, 4] of 262 nM.
In the case of `COc1cc2cc(c1Cl)N(C)C(=O)C[C@H](OC(=O)[C@H](C)N(C)C(=O)CCSSC[C@@H](NC(=O)[C@@H]1CSSC[C@H](NC(=O)[C@@H](Cc3ccccc3)NC(C)=O)C(=O)N[C@@H](Cc3ccc(O)cc3)C(=O)N[C@H](Cc3c[nH]c4ccccc34)C(=O)N[C@@H](CCCCN)C(=O)N[C@@H]([C@@H](C)O)C(=O)N1)C(N)=O)[C@]1(C)O[C@H]1[C@H](C)[C@@H]1C[C@@](O)(NC(=O)O1)[C@H](OC)/C=C/C=C(\C)C2` [Conjugate 31], the Ligand charge [1] is reported as “+1” and the Ki (human SSTR2) is reported as 0.21 nM.
For `CCNC(=O)N[C@H](Cc1ccccc1)C(=O)N[C@H]1CSSC[C@@H](C(=O)N[C@H](C(=O)N[C@@H](CSSCCC(=O)N(C)[C@@H](C)C(=O)O[C@H]2CC(=O)N(C)c3cc(cc(OC)c3Cl)C/C(C)=C/C=C/[C@@H](OC)[C@@]3(O)C[C@H](OC(=O)N3)[C@@H](C)[C@@H]3O[C@@]23C)C(N)=O)[C@@H](C)O)NC(=O)[C@H]([C@@H](C)O)NC(=O)[C@H](CCCCN)NC(=O)[C@@H](Cc2c[nH]c3ccccc23)NC(=O)[C@H](Cc2ccc(O)cc2)NC1=O` [Conjugate 36], the Ligand charge [1] was “+1”, the IC50 [2, 3] was 0.78 nM and the IC50 [2, 4] was 10 nM.
In the case of `COc1cc2cc(c1Cl)N(C)C(=O)C[C@H](OC(=O)[C@H](C)N(C)C(=O)CCSSCCNC(=O)CC[C@H]1C(=O)N[C@@H](Cc3ccc(O)cc3)C(=O)N[C@H](Cc3c[nH]c4ccccc34)C(=O)N[C@@H](CCCCNC(=O)NCCCCCCN)C(=O)N[C@@H]([C@@H](C)O)C(=O)N[C@@H](Cc3ccccc3)C(=O)N1C)[C@]1(C)O[C@H]1[C@H](C)[C@@H]1C[C@@](O)(NC(=O)O1)[C@H](OC)/C=C/C=C(\C)C2` [Conjugate 55], the Ligand charge [1] is reported as “+1” and the Ki (human SSTR2) is reported as 110 nM.
